Holding throughout (assay type): in vivo, human
The subject of experiment [1] is subject's mood. Briefly: Actimood scoring (correlation of EmoChar and IRT values). Conditions: scale 0 (low impact) to 3 (high impact). The protocol:
(§1) 1. Sensorial and Emotional Evaluation of Fragrance Raw Materials Each fragrance was evaluated by 30 subjects. At each appointment, the subject discovered fragrances in one sequence of four fragrances and two sequences of three fragrances separated by a 10-minute break.
(§2) For each fragrance, the subject discovered each fragrance on a card strip for 10 seconds. Between each product, a rest-period of 2 minutes was carried out during which the subject smelt their own body odour by smelling their wrist and the subject drank a little bit of water as well.
Emochar™ is a system of emotional characterization, scoring 7 main emotional dimensions from 0 to 10: • Stimulation: focus, attention, and awakening. • Relaxation: serenity, relaxation and appeasing. • Sensual: arousing, sexy and erotic. • Pleasure: liking, “gourmand” and satisfaction. • Tenderness: gentleness and softness. • Joy: excitement, fun and enthusiasm. • Self-esteem: confidence and assurance
Actimood scores are based on a correlation of EmoChar™ and IRT values. The scores are classified on a scale from 0 (low impact on subject's mood) to 3 (high impact on subject's mood).
Each score is obtained according to an algorithm, mixing verbal and non-verbal responses of volunteers to a specific product, or stimulus in a given context. The algorithm was developed from extensive field data, and in accordance with scientific literature and validated biobehavioral patterns associated to various emotional states.

The subject of experiment [2] is subject's mood. The experiment in a line: Sensorial and emotional evaluation of fragrance raw materials and fragrance compositions (prosody, verbatim, GEW, IRT, EmoChar combined to one mood). Conditions: 30 subjects, card strip for 10 seconds; details in FIG. 1-9. The protocol:
as §1
(§3) During those appointments, the subjects smelt the fragrances in a random way.
as §2
(§4) The evaluation is carried out in standardized lighting conditions and under a monitored temperature (temperature 21±1.5° C.).
The different recordings are carried in technical room during talking with the technicians. he following tests were performed for more than 100 different fragrance raw materials.
The following testing procedures were used to determine one mood out of five different testing strategies. All results of the single testing protocols as described in 1.1 to 1.5 were combined and one mood per fragrance raw material or fragrance composition was determined based on the single testing results.
Fragrance compositions were designed by combining the tested fragrance raw materials and the compositions were tested in 30 different subjects to evaluate the emotional impression conveyed by the fragrance composition as described above for the fragrance raw materials.

For experiment [3], the system named is subject's mood. The experiment in a line: Implicit response test (IRT). Details: scale not given here. Here is the method:
as §1, §3, §2, §4
Implicit response tests (IRTs) are a family of tests and assess the subjects' immediate, “gut instinct” responses the fragrance raw materials.
The alleged underlying processes are based on how neurosciences describe the way our brain processes information. Indeed, our brain processes information through two systems: System 2, which is slow and processes conscious information, and System 1, which is fast and processes non-conscious information.
The IRT tests are performed at a computer, where the following words appear on the computer screen: • Energizing • Relaxing • Attractive • Sensual • Joyful • Protective • Confident • Fresh • Well-being
The subject has to click on the screen with the computer mouse to indicate their accordance or not of the word with the tested fragrance. In addition, the times to click the button are recorded.

[4] abbreviates: ingredients of the fragrance composition conveying an attractive mood (Table 2).
Where [5] appears, read: ingredients of the fragrance composition conveying a fresh mood (Table 1).

In the case of `COC1(C)CCC23CC1C(C)(C)C2CCC3C` (stereo not drawn) [CEDRAMBER, 8-methoxy-2,6,6,8-tetramethyl-tricyclo[5.3.1.01,5]undecane], the values for the Actimood score in experiment [1] (sensual mood (Table 8)) and in experiment [1] (well-being mood (Table 10)) were 3 and 0, respectively. In experiment [2], the “mood conveyed by the fragrance raw material” value (“mood conveyed” below) was “conveying a sensual mood”.
Take Oxacyclohexadecen-2-one [GLOBALIDE ®]: the “IRT Score” value in experiment [3] (setting [4]) was 1815. In addition, the Actimood score in experiment [1] (attractive mood (Table 11)) worked out at 3; in experiment [1] (protective mood (Table 5)), 2; in experiment [1] (well-being mood (Table 10)), 2. In experiment [2], the “mood conveyed” value is given as “conveying a relaxing mood”.
With `CC1(C)CCCC2(C)C1CCC1(C)OCCC12` (stereo not drawn) [AMBROXIDE, 3a,6,6,9a-Tetramethyldodecahydronaphtho[2,1-b]furan], the “IRT Score” value came to 1643 in experiment [3] (setting [5]) and 1921 in experiment [3] (setting [4]). Moreover, the Actimood score in experiment [1] (attractive mood (Table 11)) was found to be 3; in experiment [1] (fresh mood (Table 12)), 3; in experiment [1] (joyful mood (Table 6)), 3; in experiment [1] (sensual mood (Table 8)) it was 2; in experiment [1] (well-being mood (Table 10)) it was 3. In addition, in experiment [2], the “mood conveyed” value is reported as “conveying a self-confident mood”.
`CCOc1cc(C=O)ccc1O` [ETHYL VANILLIN, 3-ethoxy-4-hydroxy-benzaldehyde]: in experiment [3] (setting [4]), the “IRT Score” value is reported as 2786. Also, the Actimood score was found to be 3 in experiment [1] (attractive mood (Table 11)) and 1 in experiment [1] (protective mood (Table 5)). The “mood conveyed” value in experiment [2] is “conveying a well-being mood”.
In experiment [1] (joyful mood (Table 6)), `C=CCOC(=O)CCC1CCCCC1` [ALLYL CYCLOHEXYL PROPIONATE, allyl 3-cyclohexylpropanoate] had an Actimood score of 3. Moreover, the “mood conveyed” value in experiment [2] is recorded as “conveying a joyful mood”.
As for `O=c1ccc2ccccc2o1` [COUMARIN, chromen-2-one], the “IRT Score” value in experiment [3] (setting [4]) is on record as 1347. In addition, the Actimood score in experiment [1] (attractive mood (Table 11)) is 3; in experiment [1] (relaxing mood (Composition 2, Table 4)) it was 3.
Regarding `CCc1occc(=O)c1O` [ETHYL MALTOL, 2-ethyl-3-hydroxy-pyran-4-one], the “IRT Score” value in experiment [3] (setting [4]) stood at 3505. Also, the Actimood score in experiment [1] (attractive mood (Table 11)) and in experiment [1] (joyful mood (Table 6)) was 3 in each case. Further, the “mood conveyed” value in experiment [2] is given as “conveying an attractive mood”.
For the compound `Cc1ccc2c(c1)OCC(=O)CO2` [CALONE, 7-methyl-1,5-benzodioxepin-3-one], the “IRT Score” value in experiment [3] (setting [5]) came out at 2830. In addition, the Actimood score in experiment [1] (energizing mood (Table 7)), in experiment [1] (fresh mood (Table 12)), in experiment [1] (joyful mood (Table 6)) and in experiment [1] (well-being mood (Table 10)) was 3 each time.
As to `CC1C(C)(C)C2=C(C(=O)CCC2)C1(C)C` (stereo not drawn) [CASHMERAN, 1,1,2,3,3,-pentamethyl-2,5,6,7-tetrahydroinden-4-one], the “IRT Score” value in experiment [3] (setting [4]) was 1469. Besides, the Actimood score in experiment [1] (attractive mood (Table 11)) was 3; in experiment [1] (protective mood (Table 5)), 2; in experiment [1] (self-confident mood (Table 9)), 2; in experiment [1] (well-being mood (Table 10)), 1. In experiment [2], the “mood conveyed” value is listed as “conveying a protective mood”.
`CC(C=O)Cc1ccc(C(C)C)cc1` (stereo not drawn) [CYCLAMEN ALDEHYDE, 3-(4-isopropylphenyl)-2-methyl-propanal]: the “IRT Score” value in experiment [3] (setting [5]) amounted to 1005. Moreover, the Actimood score in experiment [1] (fresh mood (Table 12)) was determined as 3.
